Measured values: paper PMC8344243, “Design, synthesis, docking, ADMET studies, and anticancer evaluation of new 3-methylquinoxaline derivatives as VEGFR-2 inhibitors and apoptosis inducers” (Journal of Enzyme Inhibition and Medicinal Chemistry, 2021)
“And” between values parts separate entries of the source, which are not always exact repeats. Equal values may be shown once. Read-outs that look alike come from different tables or passages of the source. Blank lines part the entries; values can stand above or below the compound they belong to.

Tests used:
[1] = tested on: MCF-7; parameters: method as in PMID 33721808, PMID 34023640; conditions: lead compounds of previous work ref 63, 64, read-out: Cytotoxicity on cancer cells IC50, MCF-7; cited from earlier work
[2] = target: T1, human VEGFR-2 (Homo sapiens, UniProt P35968); parameters: method as in PMID 33721808, PMID 34023640; conditions: lead compounds of previous work ref 63, 64; cited from earlier work
T1 construct: endogenous in cells; host or cells: HepG2
T1 sequence (P35968 20-1356): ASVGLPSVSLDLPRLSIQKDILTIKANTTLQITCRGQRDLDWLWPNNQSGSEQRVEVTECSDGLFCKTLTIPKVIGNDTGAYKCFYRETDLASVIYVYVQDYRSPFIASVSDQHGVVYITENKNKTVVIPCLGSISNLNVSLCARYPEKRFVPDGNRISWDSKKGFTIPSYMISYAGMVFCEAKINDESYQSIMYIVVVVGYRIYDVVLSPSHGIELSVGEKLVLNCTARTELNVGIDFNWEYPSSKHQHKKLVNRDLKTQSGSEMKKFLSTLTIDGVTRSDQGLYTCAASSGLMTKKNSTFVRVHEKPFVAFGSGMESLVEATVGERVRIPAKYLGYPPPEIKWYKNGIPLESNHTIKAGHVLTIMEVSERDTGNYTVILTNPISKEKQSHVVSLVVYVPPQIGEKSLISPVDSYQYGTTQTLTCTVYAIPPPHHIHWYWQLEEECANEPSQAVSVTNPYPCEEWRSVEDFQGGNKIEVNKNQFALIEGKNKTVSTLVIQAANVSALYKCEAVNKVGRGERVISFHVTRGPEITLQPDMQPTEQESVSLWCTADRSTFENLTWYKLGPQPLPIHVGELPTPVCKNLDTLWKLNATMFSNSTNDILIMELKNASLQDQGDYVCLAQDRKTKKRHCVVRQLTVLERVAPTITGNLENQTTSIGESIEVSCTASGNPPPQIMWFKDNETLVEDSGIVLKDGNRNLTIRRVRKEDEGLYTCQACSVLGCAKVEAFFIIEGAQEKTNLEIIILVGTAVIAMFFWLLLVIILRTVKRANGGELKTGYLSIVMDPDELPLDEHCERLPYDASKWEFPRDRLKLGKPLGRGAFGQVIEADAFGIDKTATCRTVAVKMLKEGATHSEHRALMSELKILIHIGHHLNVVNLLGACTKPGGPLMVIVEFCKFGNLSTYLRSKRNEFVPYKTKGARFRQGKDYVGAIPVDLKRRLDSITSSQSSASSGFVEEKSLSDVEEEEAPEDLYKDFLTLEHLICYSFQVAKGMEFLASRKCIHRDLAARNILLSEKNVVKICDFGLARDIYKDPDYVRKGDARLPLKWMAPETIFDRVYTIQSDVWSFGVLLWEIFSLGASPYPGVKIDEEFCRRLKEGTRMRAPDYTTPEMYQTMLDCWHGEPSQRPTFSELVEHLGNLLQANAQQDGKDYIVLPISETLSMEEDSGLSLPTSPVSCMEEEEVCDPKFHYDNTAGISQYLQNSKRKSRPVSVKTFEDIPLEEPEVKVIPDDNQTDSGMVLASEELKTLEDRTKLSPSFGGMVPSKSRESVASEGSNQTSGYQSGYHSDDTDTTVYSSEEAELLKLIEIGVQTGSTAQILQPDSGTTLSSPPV

[3] = tested on: HepG2; parameters: method as in PMID 33721808, PMID 34023640; conditions: lead compounds of previous work ref 63, 64, read-out: Cytotoxicity on cancer cells IC50, HepG2; cited from earlier work
[4] = tested on: BAX; experiment: BAX expression level in HepG2 cells (Western blot); assay type: cell-based
Description: (§1) In this study, BAX and Bcl-2 expression levels in the HepG2 cell line after the treatment with compound 27a were determined by quantitative Western blotting. […] Also, it decreased the Bcl-2 level by 2-fold less than the control cells. In addition, the BAX/Bcl-2 ratio was increased 5-fold in the treated cells compared to the control cell (Table 4 and Figure 6). Meanwhile, compound 27a increased BAX/Bcl-2 ratio, it could trigger apoptosis in the experienced cells[90]^,[91].

[5] = tested on: HepG2 cells; experiment: Flow cytometry cell cycle analysis; assay type: cell-based; conditions: 4.5 µM, 24 h
Description: The cell cycle parameters of the incubated cells were compared with untreated control cells (Table 2 and Figure 4).

[6] = tested on: HepG2 cells; experiment: Annexin V and PI double staining apoptosis assay; assay type: cell-based; conditions: 4.5 µM, 24 h
Description: As compound 27a produced a high accumulation of HepG2 cells at the G2/M phase, such compound was further investigated for its apoptotic effect using Annexin V and PI double staining assay. In such a procedure, HepG2 cells were treated with compound 27a at a concentration of 4.5 µM and incubated for 24 h.
Apoptosis analysis for compound 27a in HepG2 cells was carried out using Annexin V-FITC as shown in Supplementary Data[30]^,[86].

[7] = tested on: HepG2; experiment: MTT anti-proliferative assay, HepG2; assay type: cell-based; conditions: Homo sapiens, read-out: Cytotoxicity on cancer cells IC50, HepG2
Description: (§2) In vitro cytotoxic activities of the synthesised compounds were evaluated against two different cancer cell lines; breast cancer (MCF-7) and hepatocellular carcinoma (HepG2) using standard MTT colorimetric assay as described by Mosmann[78]^,[79]. […].
(§3) The in vitro antiproliferative activities were assessed using the MTT assay protocol[78]^,[79]^,[95]. As shown in Supplementary Data.

[8] = tested on: Bcl-2; experiment: Bcl-2 expression level in HepG2 cells (Western blot); assay type: cell-based
Description: as §1

[9] = tested on: MCF-7; experiment: MTT anti-proliferative assay, MCF-7; assay type: cell-based; conditions: Homo sapiens, MCF7; MCF-7, MTT assay; read-out: Cytotoxicity on cancer cells IC50, MCF-7
Description: as §2, §3

[10] = target: T1, human VEGFR-2; experiment: In vitro VEGFR-2 enzyme inhibition assay (ELISA kit, HepG2 cell line); assay type: biochemical; conditions: human VEGFR-2 in HepG2 cell line
Description: The synthesised compounds were estimated for their in vitro inhibition on human VEGFR-2 in HepG2 cell line; using ELISA kit[96] as described in Supplementary Data.

[11] = tested on: caspase-3; experiment: Active caspase-3 level in HepG2 cells (Western blot); assay type: cell-based; conditions: 4.5 µM, 24 h
[12] = Cytotoxicity against primary rat hepatocytes (normal hepatic cells); assay type: cell-based; conditions: rat, primary rat hepatocytes
Description: (§4) It is of high importance for anticancer agents to have minimum side effects on normal cells. […].

[13] = tested on: primary rat hepatocytes; experiment: as above; assay type: cell-based; conditions: HepG2 vs primary rat hepatocytes
Description: as §4

[14] = tested on: BAX/Bcl-2 ratio; experiment: BAX/Bcl-2 ratio in HepG2 cells (Western blot); assay type: cell-based
Description: as §1

[15] = tested on: caspase-9; experiment: Active caspase-9 level in HepG2 cells (Western blot); assay type: cell-based; conditions: 4.5 µM, 24 h

SMILES: COc1ccc(NC(=O)c2ccc(NC(=O)CSc3nnc4c5nncn5c5ccccc5n34)cc2)cc1 [Compound 8]
IC50 [1]: 4.4 µM
IC50 [2]: 0.0032 µM
IC50 [3]: 3.3 µM

IC50 [10]: 0.0032 µM
SMILES: Cc1nc2ccccc2n(CC(=O)Nc2ccc(C(=O)NC(C)(C)C)cc2)c1=O [Compound 27a, N-(tert-butyl)-4-(2-(3-methyl-2-oxoquinoxalin-1(2H)-yl)acetamido)benzamide]
Increase in the BAX level compared to control cells [4]: 2.6 fold
Protein expression (normalised to β-actin), BAX ([4]; 24 h, control = 1.00): 2.60 ± 0.20
Accumulation of cells at G2/M compared to control cells [5]: 3.5 fold
Cell cycle distribution %G1 [5]: 37.66% and 37.66 ± 2.16 %
Cell cycle distribution %G2/M [5]: 34.14% and 34.14 ± 1.22 %
Cell cycle distribution %S [5]: 26.96% and 26.96 ± 1.55%
Cell cycle distribution %Sub-G1 [5]: 1.24% and 1.24 ± 0.17%
Apoptosis, Early (right bottom) [6]: 40.47% and 40.47 ± 2.55 %
Apoptosis, Late (right top) [6]: 0.35% and 0.35 ± 0.06%
Increase of apoptosis compared to untreated cells [6]: about five times
Necrosis (left top) [6]: 0.20 ± 0.04
Viable (left bottom) [6]: 58.98 ± 2.64
IC50 [7]: 4.5 µM
Decrease in the Bcl-2 level compared to control cells [8]: 2 fold
Protein expression (normalised to β-actin), Bcl-2 ([8]; 24 h, control = 1.00): 0.52 ± 0.02
IC50 [9]: 7.7 µM
Increase in the level of caspase-3 compared to control cells [11]: 2.5 fold
Protein expression (normalised to β-actin), Caspases-3 ([11]; control = 1.00): 2.51 ± 0.27
IC50 [12]: 19.9 µM
Cytotoxic activity against cancer HepG2 cell line more than against normal hepatic cells [13]: 4.5 fold
Increase of BAX/Bcl-2 ratio compared to control cells [14]: 5 fold
Protein expression (normalised to β-actin), BAX/Bcl-2 ratio ([14]; 24 h, control = 1.00): 5.03 ± 0.36
Increase in the level of caspase-9 compared to control cells [15]: 3.43 fold
Protein expression (normalised to β-actin), Caspases-9 ([15]; control = 1.00): 3.43 ± 0.49

SMILES: O=C(Cn1c(=O)c2nncn2c2ccccc21)Nc1ccc(C(=O)Nc2ccc(Cl)cc2)cc1 [Compound 7]
IC50 [1]: 7.2 µM
IC50 [3]: 4.1 µM
